Data published in patent publication US20070082865A1, “Compositions and methods for treatment of airway hypersecretion” (Washington University, priority 2005, published 2007).

Columns and labels:
[1] = test system: airway epithelium (ciliated, Clara and goblet cells); test: Quantitative morphometry of airway epithelial cell types (β-tubulin, CCSP, MUC5AC immunostaining) after SeV inoculation; format: in vivo, C57BL/6J mice
Description: Values represent mean+SEM, and a significant difference from SeV-UV control is indicated by (*). Methodology is further described in Example 2.
FIG. 24 is a bar graph showing quantitative analysis of β-tubulin (ciliated cells), CCSP (Clara cells), and MUC5AC (goblet cells) immunostaining in airways of mice infected with SeV and treated with slL-13 receptor antagonist (slL-13Ra2-Fc) or control IgG from on days 12, 14, 17, and 20 after inoculation. Bars=20 μm. A significant difference from corresponding IgG treatment is indicated by (*). Methodology is further described in Example 4.
(§1) C57BL/6J and Balb/cJ mice were obtained from The Jackson Laboratory (Bar Harbor, Me.) and were maintained and monitored under pathogen-free conditions for study at 7 wk of age as described previously (Walter et al. (2001); Walter et al. (2002); Tyner et al. (2006) J. Clin. Invest. 116:309-321). SeV (Fushimi Strain 52) was grown in embryonated hen eggs and harvested to provide a viral stock solution such that 5000 EID50 (50% egg infectious dose) was equivalent to 2×10^5 PFU (plaque-forming units). This inoculum or an equivalent amount of UV-inactivated SeV was delivered intranasally in 30 μl PBS under ketamine/xylazine anesthesia. Under these conditions, viral tissue levels are maximal at days 3-5 after infection and viral clearance is complete by day 12 (Walter et al. (2001); Walter et al. (2002); Tyner et al. (2006) J. Clin. Invest. 116:309-321). […] For IL-13 blockade, mice were given subcutaneous injections of soluble murine IL-13Rα2 fused to Fc (slL Example 2: EGFR inhibition decreases aspects of epithelial remodeling 13Rα2-Fc; obtained from Deborah Donaldson, Wyeth Ayerst; 200 μg/mouse in PBS) or control Fc on days 12, 14, 17, and 20 post-infection (Donaldson (1998) J. Immunol. 161, 2317).
Mouse lung was fixed by intraracheal instillation of 4% paraformaldehyde at 25-cm H2O pressure. After overnight fixation at 4° C., tissue was embedded in paraffin, and cut into 3-μm thick sections for hematoxylin/eosin or immunostaining.
For immunostaining, tissue sections were deparaffinized, rehydrated in graded alcohol and encircled with a hydrophobic film (ImmEdge PEN, Vector laboratories, Burlingame, Calif.). […] EGFR was detected using rabbit-antihuman EGFR antibody SC-03 from Santa Cruz Biotechnology (Santa Cruz, Calif.) directed against amino acid residues 1005-1016 that are identical to corresponding sequence in murine EGFR. Phosphorylated EGFR (p-EGFR) was detected using rabbit anti-phospho-EGFR (Tyr845) antibody #2231 from Cell Signaling Technology Inc. (Beverly, Mass.) directed against phosphorylated Tyr^845. […]

[2] = test system: EGFR signaling (Akt activation); test: Western blot of lung lysates from SeV-inoculated mice treated with EKB-569; format: in vivo, C57BL/6J mice
Procedure: Blotting was with the indicated antibodies. Methodology is further described in Examples 1 and 2.
as §1

[3] = test system: EGFR-dependent signals (p-EGFR, p-Akt, p-ERK1/2); test: Western blot of EGF-stimulated mTEC cultures with or without inhibitor; format: cell-based, mouse; conditions: basic medium then EGF stimulation, inhibitor at maximal effective concentration
[4] = test system: ciliated epithelial cells in mouse tracheal epithelial cell (mTEC) cultures; test: Ciliated cell survival in mTEC cultures (β-tubulin staining cells as % of total Hoechst-staining cells); format: cell-based; conditions: treatment for 7 days
[5] = test system: mouse tracheal epithelial cell (mTEC) cultures; test: Apoptosis in mTEC cultures (active caspase 3, TUNEL); format: cell-based; conditions: mTEC with EGFR signaling blockade plus z-VAD-fmk (100 μM)
Procedure: Bar=20 μm. Methodology is further described in Example 3.
FIGS. 13A and 13B are bar graphs showing quantitative analysis of FIG. 12 for activate caspase-3 staining cells (expressed as % of total Hoechst staining cells) using treatment conditions from FIG. 12 as well as PD15305 plus zVAD-fmk (100 μM). Values represent mean+SEM, and a significant difference from vehicle alone is indicated by (*). Methodology is further described in Example 3.
AIRWAY EPITHELIAL CELL CULTURE AND TREATMENT.
IMMUNOCYTOCHEMISTRY. Cultured cells were washed twice with PBS at 4° C., fixed in 4% paraformaldehyde for 10 min. at 25° C., washed with PBS, and permeabilized with ethanol:acetic acid (2:1, vol/vol) for 5 min at −20° C. for TUNEL reaction or with 0.2% Triton-X for 5 min at 25° C. for immunostaining. Permeabilized cells were then washed with PBS and subjected to the TUNEL reaction (Intergen, Purchase, N.Y.) or blocked with 2% fish gel 1 h at 25° C. and incubated with rabbit anti-active caspase 3 (BD Biosciences, San Diego, Calif.), rabbit anti-EGFR (Santa Cruz Biotechnology, Santa Cruz, Calif.), rabbit anti-p-EGFR (Cell Signaling Technology, Inc., Beverly, Mass.), mouse anti-β-tubulin-IV or rabbit anti-β-tubulin (Sigma, St. Louis, Mo.) antibodies overnight at 4° C. Primary antibody binding was detected with goat anti-mouse or donkey anti-rabbit FITC or CY3 secondary antibody. […]

[6] = SeV, EGFR inhibitor daily post-infection days 10-21, read at day 21

## CCOc1cc2ncc(C#N)c(Nc3ccc(F)c(Cl)c3)c2cc1NC(=O)/C=C/CN(C)C [EKB-569]
[1]; [6]
  Clara cell decreases: complete blockade
  ciliated cell increases: complete blockade
  goblet cell metaplasia: partial but significant inhibition
[1]; post-inoculation day 21, vehicle 133±3
  total number of airway epithelial cells (cytokeratin-staining cells): 137±5 per mm basement membrane
[2]; 20 mg/kg by gavage daily, post-infection days 10-21, day 21 post-infection
  Akt activation in whole mouse lung: full inhibition
[2]; oral, each day from post-inoculation day 10 through day 21
  EGFR signaling in vivo: blocked EGFR signaling

## COc1cccc(-c2cc(=O)c3ccccc3o2)c1N [PD98059]
[3]
  phosphorylation of ERK1/2: blocked
[4]
  loss of ciliated epithelial cells: only treatment with LY294002 caused a similar loss

## COc1cc2ncnc(Nc3cccc(Br)c3)c2cc1OC [PD153035]
[3]
  downstream EGFR signals: blocked all downstream signals
[4]
  loss of ciliated epithelial cells: dose-dependent loss of ciliated cells

## z-Val-Ala-Asp fluoromethylketone [z-VAD-fmk]
[5]
  TUNEL-positive cells undergoing apoptosis: blocked
